Laboratory results as given in ChEMBL document CHEMBL5108009, “Positron Emission Tomography (PET) Imaging Tracers for Serotonin Receptors” (J Med Chem, 2022).

Experiments:
[1] = target: Alpha-1A adrenergic receptor (Homo sapiens) (UniProt P35348); assay: Binding affinity to alpha 1A adrenergic receptor (unknown origin); conditions: filed as antagonist
[2] = target: T1, 5-hydroxytryptamine receptor 1A (Rattus norvegicus, UniProt P19327); assay: Displacement of [3H]-8-OH-DPAT from rat hippocampal membrane 5HT1A receptor by CEREP assay; assay type: cell membranes, Hippocampus
T1 sequence (P19327 whole entry): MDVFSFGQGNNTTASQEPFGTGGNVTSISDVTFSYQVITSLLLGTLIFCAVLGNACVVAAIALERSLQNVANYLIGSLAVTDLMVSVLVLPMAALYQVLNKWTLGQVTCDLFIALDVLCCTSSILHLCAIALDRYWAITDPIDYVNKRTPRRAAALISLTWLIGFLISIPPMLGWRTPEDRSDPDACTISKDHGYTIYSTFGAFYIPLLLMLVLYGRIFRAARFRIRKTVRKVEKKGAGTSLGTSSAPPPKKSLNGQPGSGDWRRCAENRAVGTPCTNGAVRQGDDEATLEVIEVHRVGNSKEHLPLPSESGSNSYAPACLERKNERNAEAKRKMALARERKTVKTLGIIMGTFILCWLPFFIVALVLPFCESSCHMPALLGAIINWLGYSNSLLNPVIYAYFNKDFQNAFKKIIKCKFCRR

[3] = target: T2, 5-hydroxytryptamine receptor 7 (Homo sapiens, UniProt P34969); assay: Binding affinity to human recombinant 5-HT7 receptor expressed in CHO cells assessed as inhibition constant; assay type: cell-based
[4] = target: T3, 5-hydroxytryptamine receptor 1A (Homo sapiens, UniProt P08908); assay: Binding affinity to human recombinant 5-HT1A expressed in CHO cells assessed as inhibition constant; assay type: cell-based
T3 sequence (P08908 whole entry): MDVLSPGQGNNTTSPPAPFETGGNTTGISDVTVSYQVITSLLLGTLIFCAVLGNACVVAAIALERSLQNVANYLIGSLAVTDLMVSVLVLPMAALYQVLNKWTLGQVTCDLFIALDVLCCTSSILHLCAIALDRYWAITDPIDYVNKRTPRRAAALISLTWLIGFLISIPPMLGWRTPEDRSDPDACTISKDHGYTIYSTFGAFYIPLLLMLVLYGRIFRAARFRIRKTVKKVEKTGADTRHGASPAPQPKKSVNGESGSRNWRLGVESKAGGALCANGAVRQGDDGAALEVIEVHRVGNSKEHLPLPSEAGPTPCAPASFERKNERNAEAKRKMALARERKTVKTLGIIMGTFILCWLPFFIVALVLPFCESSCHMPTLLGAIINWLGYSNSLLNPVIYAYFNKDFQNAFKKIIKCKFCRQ

[5] = Displacement of [3H]-8-OH-DPAT from bovine hippocampal tissue 5HT1A receptor by competitive binding assay; assay type: tissue-based, Bos taurus, Hippocampus
[6] = plasma, 10 min
Description: Drug metabolism in plasma (unknown origin) assessed as parent compound remaining by measuring total radioactivity at 10 mins by HPLC analysis

[7] = target: Serotonin 3 (5-HT3) receptor
Description: Inhibition of 5HT3 receptor (unknown origin)

[8] = Ratio of drug uptake in cynomolgus monkey cingulate gyrus to cerebellum measured at 87.5 mins postinjection; assay type: ADME, organism-based, Macaca fascicularis; conditions: in vivo, 1.458 h
[9] = target: 5-hydroxytryptamine receptor 2A (Homo sapiens, UniProt P28223); assay: Binding affinity to human 5-HT2A transfected in human tsA201 cells assessed as inhibition constant incubated for 2 hrs by scintillation counter analysis; assay type: cell-based
[10] = target: T2, 5-hydroxytryptamine receptor 7; assay: Binding affinity to human recombinant 5-HT7 receptor assessed as inhibition constant
[11] = Ratio of drug uptake in baboon hippocampus to cerebellum at 175 mins; assay type: ADME, tissue-based, Papio; conditions: in vivo, 2.917 h
[12] = Ratio of drug uptake in baboon anterior cingulate cortex to cerebellum at 175 mins; assay type: ADME, tissue-based, Papio; conditions: in vivo, 2.917 h
[13] = Ratio of drug uptake in baboon insular cortex to cerebellum at 175 mins; assay type: ADME, tissue-based, Papio; conditions: in vivo, 2.917 h
[14] = Biodistribution in rat assessed as drug uptake measured as percentage of injected dose per gram of tissue relative to control; assay type: ADME, organism-based; conditions: in vivo
[15] = target: 5-hydroxytryptamine receptor 2A (Rattus norvegicus, UniProt P14842); assay: Binding affinity to Wistar rat cortex membrane homogenate 5-HT2A receptor incubated for 90 mins by liquid scintillation counter analysis; assay type: cell membranes
[16] = target: 5-hydroxytryptamine receptor 1D (Homo sapiens, UniProt P28221); assay: Binding affinity to 5-HT1D receptor (unknown origin) assessed as inhibition constant
[17] = target: 5-hydroxytryptamine receptor 2B (Homo sapiens, UniProt P41595); assay: Binding affinity to 5-HT2B receptor (unknown origin) assessed as inhibition constant
[18] = target: T3, 5-hydroxytryptamine receptor 1A
[19] = target: 5-hydroxytryptamine receptor 7 (Rattus norvegicus, UniProt P32305); assay: Binding affinity to rat 5-HT7 receptor assessed as inhibition constant
[20] = Drug metabolism in plasma (unknown origin) assessed as parent compound remaining measured at 55 mins relative to control; assay type: ADME; conditions: read-out: Stability
[21] = Drug uptake in cynomolgus monkey in brain administered IV measured at 7.5 mins relative to control; assay type: ADME, tissue-based, Macaca fascicularis; conditions: in vivo, 0.125 h
[22] = Ratio of drug distribution in cynomolgus monkey hippocampus to cerebellum measured at 30 mins postinjection; assay type: ADME, organism-based, Macaca fascicularis; conditions: in vivo, 0.5 h
[23] = target: T3, 5-hydroxytryptamine receptor 1A; remark: listed apart in the source
[24] = Ratio of drug distribution in rat hippocampus to cerebellum at 30 mins postinjection; assay type: ADME, organism-based; conditions: in vivo, 0.5 h
[25] = Drug uptake in plasma (unknown origin) as parent compound by measuring radioactivity at 30 mins postinjection relative to control; assay type: ADME, organism-based; conditions: in vivo, 0.5 h
[26] = Drug metabolism in monkey plasma assessed as unchanged compound at 120 mins postinjection relative to control; assay type: ADME, organism-based, Macaca mulatta; conditions: rhesus monkey, read-out: Stability
[27] = Ratio of drug biodistribution in rat hippocampus to cerebellum at 30 mins postinjection; assay type: ADME, organism-based; conditions: in vivo, 0.5 h

T2 sequence (P34969 whole entry): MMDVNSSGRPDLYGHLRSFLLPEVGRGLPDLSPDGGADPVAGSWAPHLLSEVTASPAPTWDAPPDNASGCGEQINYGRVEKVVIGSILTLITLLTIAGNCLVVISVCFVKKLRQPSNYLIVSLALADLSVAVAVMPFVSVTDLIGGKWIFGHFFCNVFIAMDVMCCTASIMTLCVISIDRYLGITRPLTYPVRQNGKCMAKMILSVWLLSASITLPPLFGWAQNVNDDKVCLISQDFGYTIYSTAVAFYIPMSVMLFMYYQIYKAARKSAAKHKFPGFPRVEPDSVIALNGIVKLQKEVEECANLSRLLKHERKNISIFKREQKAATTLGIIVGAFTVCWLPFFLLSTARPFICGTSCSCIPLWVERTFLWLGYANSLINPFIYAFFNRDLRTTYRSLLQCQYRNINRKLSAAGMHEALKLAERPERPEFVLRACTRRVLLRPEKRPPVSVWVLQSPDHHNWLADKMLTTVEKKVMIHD
Sequence of 5-hydroxytryptamine receptor 2A (Homo sapiens, UniProt P28223) (P28223 whole entry): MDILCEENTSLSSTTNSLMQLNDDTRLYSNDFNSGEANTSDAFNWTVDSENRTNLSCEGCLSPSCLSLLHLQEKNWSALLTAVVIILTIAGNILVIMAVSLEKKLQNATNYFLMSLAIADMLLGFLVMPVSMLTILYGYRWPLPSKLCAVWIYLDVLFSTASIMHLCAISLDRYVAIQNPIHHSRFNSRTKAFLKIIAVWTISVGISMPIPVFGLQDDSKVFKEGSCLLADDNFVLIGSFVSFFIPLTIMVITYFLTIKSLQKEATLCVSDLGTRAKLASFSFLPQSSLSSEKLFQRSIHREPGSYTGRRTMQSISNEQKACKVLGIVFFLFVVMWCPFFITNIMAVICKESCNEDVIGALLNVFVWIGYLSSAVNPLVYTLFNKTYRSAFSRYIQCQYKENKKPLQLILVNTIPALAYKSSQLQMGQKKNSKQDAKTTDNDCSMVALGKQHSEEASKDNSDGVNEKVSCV
Sequence of 5-hydroxytryptamine receptor 7 (Rattus norvegicus, UniProt P32305) (P32305 whole entry): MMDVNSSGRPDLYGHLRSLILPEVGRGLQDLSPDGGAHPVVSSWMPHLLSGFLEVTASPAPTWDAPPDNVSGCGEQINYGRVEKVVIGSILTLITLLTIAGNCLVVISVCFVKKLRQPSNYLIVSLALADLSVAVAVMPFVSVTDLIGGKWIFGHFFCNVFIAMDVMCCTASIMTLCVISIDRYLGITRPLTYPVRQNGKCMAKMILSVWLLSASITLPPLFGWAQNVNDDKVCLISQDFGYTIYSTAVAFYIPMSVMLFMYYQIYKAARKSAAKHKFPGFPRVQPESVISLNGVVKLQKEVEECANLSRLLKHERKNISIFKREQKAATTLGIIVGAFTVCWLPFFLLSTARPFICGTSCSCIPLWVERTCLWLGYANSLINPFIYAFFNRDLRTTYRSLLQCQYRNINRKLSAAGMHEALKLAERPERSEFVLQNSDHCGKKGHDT
Sequence of 5-hydroxytryptamine receptor 1D (P28221 whole entry): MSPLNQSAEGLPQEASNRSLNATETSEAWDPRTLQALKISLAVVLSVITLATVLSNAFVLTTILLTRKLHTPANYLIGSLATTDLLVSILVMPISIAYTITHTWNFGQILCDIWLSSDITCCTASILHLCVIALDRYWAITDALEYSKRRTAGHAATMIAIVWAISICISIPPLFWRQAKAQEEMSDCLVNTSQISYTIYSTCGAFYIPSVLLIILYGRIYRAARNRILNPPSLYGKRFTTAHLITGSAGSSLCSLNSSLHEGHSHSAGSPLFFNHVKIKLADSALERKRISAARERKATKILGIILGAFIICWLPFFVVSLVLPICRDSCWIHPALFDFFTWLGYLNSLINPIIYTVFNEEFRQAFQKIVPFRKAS
Sequence of 5-hydroxytryptamine receptor 2A (Rattus norvegicus, UniProt P14842) (P14842 whole entry): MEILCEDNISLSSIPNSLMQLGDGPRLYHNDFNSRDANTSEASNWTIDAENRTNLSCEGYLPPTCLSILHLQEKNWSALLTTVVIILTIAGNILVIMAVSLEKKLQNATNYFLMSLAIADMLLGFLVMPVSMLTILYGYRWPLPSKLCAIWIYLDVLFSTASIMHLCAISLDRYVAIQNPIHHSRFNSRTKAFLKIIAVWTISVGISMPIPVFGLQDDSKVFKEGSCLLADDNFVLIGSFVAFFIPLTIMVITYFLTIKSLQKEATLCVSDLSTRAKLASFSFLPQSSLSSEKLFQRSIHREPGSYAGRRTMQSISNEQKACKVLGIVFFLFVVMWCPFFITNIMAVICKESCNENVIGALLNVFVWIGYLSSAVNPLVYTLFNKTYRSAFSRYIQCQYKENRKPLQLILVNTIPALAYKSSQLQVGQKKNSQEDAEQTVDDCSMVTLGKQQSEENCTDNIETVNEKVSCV
Sequence of 5-hydroxytryptamine receptor 2B (P41595 whole entry): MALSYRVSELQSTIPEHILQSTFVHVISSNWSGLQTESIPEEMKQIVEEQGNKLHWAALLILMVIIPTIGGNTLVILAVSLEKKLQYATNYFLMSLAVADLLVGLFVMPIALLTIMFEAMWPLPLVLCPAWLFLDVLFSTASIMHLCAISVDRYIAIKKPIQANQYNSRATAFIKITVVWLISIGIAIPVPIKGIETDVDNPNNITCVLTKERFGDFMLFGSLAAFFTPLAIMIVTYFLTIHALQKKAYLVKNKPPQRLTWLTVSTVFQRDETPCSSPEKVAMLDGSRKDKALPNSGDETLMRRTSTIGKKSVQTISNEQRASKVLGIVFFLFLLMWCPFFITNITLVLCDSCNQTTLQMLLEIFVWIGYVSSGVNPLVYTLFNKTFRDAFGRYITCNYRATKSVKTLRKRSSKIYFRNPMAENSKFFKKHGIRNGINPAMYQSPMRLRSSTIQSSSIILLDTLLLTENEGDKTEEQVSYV
Sequence of Alpha-1A adrenergic receptor (Homo sapiens) (P35348 whole entry): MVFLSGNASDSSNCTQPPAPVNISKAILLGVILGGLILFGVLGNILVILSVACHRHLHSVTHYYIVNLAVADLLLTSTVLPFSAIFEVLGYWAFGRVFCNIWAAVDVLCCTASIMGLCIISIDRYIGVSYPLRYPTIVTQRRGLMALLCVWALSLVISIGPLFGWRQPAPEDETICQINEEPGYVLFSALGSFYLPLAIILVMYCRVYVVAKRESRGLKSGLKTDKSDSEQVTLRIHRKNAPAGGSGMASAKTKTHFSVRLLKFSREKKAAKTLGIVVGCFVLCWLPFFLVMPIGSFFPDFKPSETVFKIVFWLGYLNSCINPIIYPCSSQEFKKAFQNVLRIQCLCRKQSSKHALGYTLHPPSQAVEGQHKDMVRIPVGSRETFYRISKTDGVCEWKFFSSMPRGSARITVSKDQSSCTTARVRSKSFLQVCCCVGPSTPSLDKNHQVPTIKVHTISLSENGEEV

**Q.** With COc1ccccc1N1CCN(CCCCN(C)C(=O)c2cnc(SC)n2C)CC1 as the compound, how does the K [1] read?
**A.** 5.45 nM

**Q.** What about the IC50 [2] of the same compound?
**A.** 0.86 nM

**Q.** What does the source list for COc1ccccc1N1CCN(CCC[C@H]2CCCN2S(=O)(=O)c2ccc(F)cc2)CC1?
**A.** Ki [3]: 2.6 nM; Ki [4]: 6.8 nM

**Q.** Which Ki [5] does the source give for [11CH3]O[C@H]1CC[C@@H](C(=O)N(CCN2CCN(c3ccccc3O)CC2)c2ccccn2)CC1 here?
**A.** 24 nM

**Q.** With O=[11C](C1CCCCC1)N(CCN1CCN(c2ccccc2O)CC1)c1ccccn1 as the compound, how does the Stability [6] read?
**A.** < 10%

**Q.** For COc1cn2cccc2c(N2CCN(Cc3ccc(F)cc3)CC2)n1, which IC50 [7] is on record?
**A.** 6.6 nM

**Q.** Which Ratio [8] does the source give for [11CH3]Oc1ccccc1N1CCN(CC[C@@H](C(=O)N2CCCCCC2)c2ccccc2)CC1 here?
**A.** 6.4

**Q.** For COc1cc(CCNCc2ccccc2OC)c(OCC[18F])cc1Br, which Ki [9] is on record?
**A.** < 1.2 nM

**Q.** Which Ki [10] does the source give for Cc1ccc(N2CCN(CCCCC3C(=O)Nc4ccccc43)CC2)cc1 (stereo not given) here?
**A.** 1.1 nM

**Q.** For Cn1c(=O)cnn(CCCCN2CCN(c3ccccc3OCC[18F])CC2)c1=O, which Ratio [11] is on record?
**A.** 4

**Q.** What about the Ratio [12] of the same compound?
**A.** 2.3

**Q.** What about the Ratio [13] of the same compound?
**A.** 1.8

**Q.** With COc1ccccc1N1CCN(CCCCn2ccnc2S[11CH3])CC1 as the compound, how does the Drug uptake [14] read?
**A.** 1.14 % ID/g

**Q.** With [O-][S+](c1ccc(F)cc1)C1CCN(CCc2ccc(F)cc2F)CC1 (stereo not given) as the compound, how does the Ki [15] read?
**A.** 198 nM

**Q.** What does the source list for COc1ccccc1N1CCN(CC[C@@H](C(=O)N2CCCCCC2)c2ccccc2)CC1?
**A.** Ki [16]: 9.5 nM; Ki [17]: 7.2 nM; Ki [18]: 0.6 nM

**Q.** With COc1cc(Br)c(OCC[18F])cc1CCNCc1ccccc1OC as the compound, how does the Ki [9] read?
**A.** < 1.2 nM

**Q.** With CCC1(CCCCN2CCN(c3cccc(OCCF)c3)CC2)C(=O)Nc2ccccc21 (stereo not given) as the compound, how does the Ki [19] read?
**A.** 13 nM

**Q.** With COc1cccc(N2CCN(CCCCC3C(=O)Nc4ccccc43)CC2)c1 (stereo not given) as the compound, how does the Ki [10] read?
**A.** 2.6 nM

**Q.** What does the source list for COc1ccccc1N1CCN(CCN(C(=O)C2CCCCC2)c2cccc([18F])n2)CC1?
**A.** remaining at 55 min [20]: 20%; Drug uptake [21]: 4.33%; Ratio [22]: 1.4

**Q.** For COc1ccccc1N1CCN(CCN(C(=O)c2ccc([18F])cc2)c2ccccn2)CC1, which Kd [23] is on record?
**A.** 0.34 nM

**Q.** And the Ratio [24]?
**A.** 5.6

**Q.** What about the Drug uptake [25] of the same compound?
**A.** 20%

**Q.** With CN1CCN(c2cc(F)cc3c(=O)cc(C(=O)Nc4ccc(N5CCOCC5)c([18F])c4)oc23)CC1 as the compound, how does the remaining at 2 h [26] read?
**A.** > 40%

**Q.** Which results are given for COc1ccccc1N1CCN(CCN(C(=O)c2ccc([18F])cc2)c2ncccn2)CC1?
**A.** Ki [18]: < 1 nM; Ratio [27]: 5.5
